According to US20210196751A1, “METHODS OF CANCER TREATMENT USING AN ATR INHIBITOR” (Vertex Pharmaceuticals Incorporated, priority 2017, published 2021):

Test system: panel of 552 cancer cell lines
Assay: Growth inhibition (ATPLite) of ATR inhibitor in combination with cisplatin or gemcitabine; synergy score from AUC difference
Type: cell-based
Conditions: 96 hours; for synergy when combined with cisplatin: in combination with cisplatin; for synergy when combined with gemcitabine: in combination with gemcitabine
Experimental: Cell Culture Methods. Cells were removed from liquid nitrogen storage, thawed and expanded in appropriate growth media. Once expanded, cells were seeded in 384-well tissue culture treated plates at 500 cells per well. […] At the end of either 0 hours or 96 hours, cell status was analyzed using ATPLite (adenosine triphosphate monitoring system; Perkin Elmer) to assess the biological response of cells to drug combinations.
In this study, growth inhibition (GI) was used as the primary endpoint. ATP monitoring was performed using ATPLite, which allows for the monitoring of cytocidal, cytostatic and proliferative effects of drugs on cells.
Data Analysis to Assess Synergy of Combination Treatments. […] Synergy was evaluated using the sum of the AUC (Area Under the Curve) difference.
Briefly, combination treatment effect was calculated as the AUC normalized to the single agent effect of the ATR inhibitor compound. Total synergy or antagonism was calculated as the difference between the normalized combination AUC and the genotoxin single agent AUC. As before, the synergy score was normalized by dividing the total synergy score by the total number of regimens used.

| SMILES | synergy when combined with cisplatin | synergy when combined with gemcitabine |
| --- | --- | --- |
| Nc1nn2cc(F)cnc2c1C(=O)Nc1cncc(F)c1N1CCC(C(=O)N2CCN(C3COC3)CC2)CC1 [I-G-32] | synergistic | synergistic |
| CNCc1ccc(-c2cc(-c3nc(-c4ccc(S(=O)(=O)C(C)C)cc4)cnc3N)on2)cc1 [IIA-7] | synergistic | synergistic |
